Reference: ChEMBL document CHEMBL5108031, “Novel N-(4-thiocyanatophenyl)-1H-1,2,3-triazole-4-carboxamides exhibit selective cytotoxic activity at nanomolar doses towards human leukemic T-cells” (Eur J Med Chem, 2022)
Active and inactive are the calls of the source. The rule behind the calls is not given here.

Columns and labels:
HOP-92 = assay: Antiproliferative activity against human HOP-92 cells; type: functional
SNB-75 = assay: Antiproliferative activity against human SNB-75 cells; type: functional
HCT-116 [1] = assay: Antiproliferative activity against human HCT-116 cells incubated for 72 hrs and measured by MTT assay; type: functional
HCT-116 [2] = assay: Antiproliferative activity against p53-deficient human HCT-116 cells incubated for 72 hrs and measured by MTT assay; type: functional
WM793 = assay: Antiproliferative activity against human WM793 cells incubated for 72 hrs and measured by MTT assay; type: functional
HeLa = assay: Antiproliferative activity against human HeLa cells incubated for 72 hrs and measured by MTT assay; type: functional
KB 3-1 = assay: Antiproliferative activity against human KB 3-1 cells incubated for 72 hrs and measured by MTT assay; type: functional
A549 = assay: Antiproliferative activity against human A549 cells incubated for 72 hrs and measured by MTT assay; type: functional
MCF7 = assay: Antiproliferative activity against human MCF7 cells incubated for 72 hrs and measured by MTT assay; type: functional
MDA-MB-231 = assay: Antiproliferative activity against human MDA-MB-231 cells incubated for 72 hrs and measured by MTT assay; type: functional
SK-OV-3 = assay: Antiproliferative activity against human SK-OV-3 cells incubated for 72 hrs and measured by MTT assay; type: functional
THP-1 = assay: Antiproliferative activity against human THP-1 cells incubated for 72 hrs and measured by MTT assay; type: functional
K562 = assay: Antiproliferative activity against human K562 cells incubated for 72 hrs and measured by MTT assay; type: functional
Jurkat [3] = assay: Antiproliferative activity against human Jurkat cells incubated for 72 hrs and measured by MTT assay; type: functional
HaCaT = assay: Antiproliferative activity against human HaCaT cells incubated for 72 hrs and measured by MTT assay; type: functional
HEK293 = assay: Antiproliferative activity against human HEK293 cells incubated for 72 hrs and measured by MTT assay; type: functional
BALB/3T3 = assay: Antiproliferative activity against mouse BALB/3T3 cells incubated for 72 hrs and measured by MTT assay; type: functional
DNA [4] = assay: Binding affinity to DNA (unknown origin) assessed as DNA intercalation at 1 ug/ml by measuring amount of methyl green dye replaced from DNA-methyl green complex; type: nucleic-acid assay; conditions: Homo sapiens; dose 1.0 µg/ml
DNA [5] = assay: Binding affinity to DNA (unknown origin) assessed as DNA intercalation at 10 ug/ml by measuring amount of methyl green dye replaced from DNA-methyl green complex; type: nucleic-acid assay; conditions: Homo sapiens; dose 10.0 µg/ml
[6] = biological target: DNA topoisomerase 2-alpha (Homo sapiens, UniProt P11388); assay: Inhibition of DNA topoisomerase 2 alpha (unknown origin) measured by topoisomerase-mediated DNA relaxation assay
Jurkat [7] = assay: Induction of apoptosis in human Jurkat cells assessed as fragmented DNA and nuclei at 0.5 uM measured after 24 hrs by Hoechst 33342/propidium iodide staining based fluorescence microscopic analysis; type: functional, cell-based
Jurkat [8] = assay: Induction of apoptosis in human Jurkat cells assessed as condensed chromatin at 0.5 uM measured after 24 hrs by Hoechst 33342/propidium iodide staining based fluorescence microscopic analysis; type: functional, cell-based
Jurkat [9] = assay: Induction of apoptosis in human Jurkat cells assessed as cellular membrane blebbing at 0.5 uM measured after 24 hrs by Hoechst 33342/propidium iodide staining based fluorescence microscopic analysis; type: functional, cell-based
Jurkat [10] = assay: Induction of apoptosis in human Jurkat cells assessed as appearance of apoptotic bodies at 0.5 uM measured after 24 hrs by Hoechst 33342/propidium iodide staining based fluorescence microscopic analysis; type: functional, cell-based
Jurkat [11] = assay: Induction of apoptosis in human Jurkat cells assessed as cell debris at 0.5 uM measured after 24 hrs by Hoechst 33342/propidium iodide staining based fluorescence microscopic analysis; type: functional
Jurkat [12] = assay: Induction of apoptosis in human Jurkat cells assessed as decrease in mitochondrial membrane potential at 0.5 uM measured after 24 hrs by Rhodamine 123 fluorescence based assay; type: functional, cell-based
Jurkat [13] = assay: Induction of DNA damage in human Jurkat cells assessed as tail DNA at 0.5 uM measured after 24 hrs by comet assay; type: functional
Jurkat [14] = assay: Induction of DNA damage in human Jurkat cells assessed as olive tail moment at 0.5 uM measured after 24 hrs by comet assay; type: functional
Jurkat [15] = assay: Induction of DNA damage in human Jurkat cells assessed as DNA fragmentation at 0.5 uM measured by Diphenylamine assay; type: functional
Homo sapiens = species on record: Homo sapiens; assay: Inhibition of electrophoretic mobility of Plasmid DNA pEGFPc-1 (unknown origin) incubated for 6 hrs at 1 uM and measured by agarose gel electrophoresis method
DNA [16] = assay: Binding affinity to DNA (unknown origin) assessed as DNA intercalation at 1 uM by measuring amount of methyl green dye replaced from DNA-methyl green complex; type: nucleic-acid assay; conditions: Homo sapiens
DNA [17] = assay: Binding affinity to DNA (unknown origin) assessed as DNA intercalation at 10 uM by measuring amount of methyl green dye replaced from DNA-methyl green complex; type: nucleic-acid assay; conditions: Homo sapiens
[18] = biological target: Heat shock protein HSP 90-alpha (Homo sapiens, UniProt P07900); assay: Inhibition of Hsp90alpha (unknown origin)

Chain of DNA topoisomerase 2-alpha (P11388 whole entry, the tested form may be a part): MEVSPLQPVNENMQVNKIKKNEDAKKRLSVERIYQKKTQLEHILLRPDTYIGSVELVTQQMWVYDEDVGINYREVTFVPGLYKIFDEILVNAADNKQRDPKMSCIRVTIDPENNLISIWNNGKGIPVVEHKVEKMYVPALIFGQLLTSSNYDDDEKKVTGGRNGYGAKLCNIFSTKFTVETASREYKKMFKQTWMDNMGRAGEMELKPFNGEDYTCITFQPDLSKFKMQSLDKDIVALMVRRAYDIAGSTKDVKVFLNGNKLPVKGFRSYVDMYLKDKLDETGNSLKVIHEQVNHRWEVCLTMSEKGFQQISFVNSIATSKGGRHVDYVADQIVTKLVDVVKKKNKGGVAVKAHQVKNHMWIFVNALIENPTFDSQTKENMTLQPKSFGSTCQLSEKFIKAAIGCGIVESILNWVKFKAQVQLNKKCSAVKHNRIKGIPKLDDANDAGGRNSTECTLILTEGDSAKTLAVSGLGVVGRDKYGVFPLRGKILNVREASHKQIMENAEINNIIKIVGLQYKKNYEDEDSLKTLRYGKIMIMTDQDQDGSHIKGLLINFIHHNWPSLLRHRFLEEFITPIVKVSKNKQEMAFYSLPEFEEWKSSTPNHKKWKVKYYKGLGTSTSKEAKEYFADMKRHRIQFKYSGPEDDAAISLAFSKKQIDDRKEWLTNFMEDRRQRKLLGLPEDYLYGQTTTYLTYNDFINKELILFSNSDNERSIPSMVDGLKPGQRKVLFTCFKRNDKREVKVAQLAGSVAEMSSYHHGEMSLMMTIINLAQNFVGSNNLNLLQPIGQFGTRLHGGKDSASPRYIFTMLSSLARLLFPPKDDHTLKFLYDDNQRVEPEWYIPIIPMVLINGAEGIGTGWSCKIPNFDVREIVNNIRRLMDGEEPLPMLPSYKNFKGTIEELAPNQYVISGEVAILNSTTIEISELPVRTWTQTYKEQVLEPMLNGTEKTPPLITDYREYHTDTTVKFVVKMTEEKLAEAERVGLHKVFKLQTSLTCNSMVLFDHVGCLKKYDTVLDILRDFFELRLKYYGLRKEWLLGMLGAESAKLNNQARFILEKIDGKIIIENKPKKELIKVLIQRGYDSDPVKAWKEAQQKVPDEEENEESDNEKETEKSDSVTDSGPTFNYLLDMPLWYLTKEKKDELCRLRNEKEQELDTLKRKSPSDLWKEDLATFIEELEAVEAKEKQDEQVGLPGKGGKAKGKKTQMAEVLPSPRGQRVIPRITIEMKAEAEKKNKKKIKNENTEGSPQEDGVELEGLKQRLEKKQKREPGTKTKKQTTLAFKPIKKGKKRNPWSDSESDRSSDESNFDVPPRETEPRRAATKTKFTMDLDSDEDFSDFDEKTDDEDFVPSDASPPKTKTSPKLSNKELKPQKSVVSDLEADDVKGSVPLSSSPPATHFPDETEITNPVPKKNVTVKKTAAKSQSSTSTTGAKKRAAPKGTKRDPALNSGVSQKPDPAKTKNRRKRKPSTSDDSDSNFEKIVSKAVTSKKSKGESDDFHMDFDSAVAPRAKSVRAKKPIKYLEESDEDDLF

SMILES | GI50 (HCT-116 [1]) | GI50 (HCT-116 [2]) | GI50 (WM793) | GI50 (HeLa) | GI50 (KB 3-1) | GI50 (A549) | GI50 (MCF7) | GI50 (MDA-MB-231) | GI50 (SK-OV-3) | GI50 (THP-1) | GI50 (K562) | GI50 (Jurkat [3]) | GI50 (HaCaT) | GI50 (HEK293) | GI50 (BALB/3T3) | other results
Cc1ccc(-n2nnc(C(=O)Nc3cc(Cl)ccc3Cl)c2N)cc1 |  |  |  |  |  |  |  |  |  |  |  |  |  |  |  | GI50 (HOP-92): 0.58 µM; TGI (HOP-92): 5.9 µM; GI50 (SNB-75): 0.58 µM; TGI (SNB-75): 5.9 µM
COc1cccc(-n2nnc(C(=O)Nc3ccc(SC#N)cc3)c2C)c1 | > 100 µM | 39.8 µM | > 100 µM | > 100 µM | > 100 µM | > 100 µM | > 100 µM | > 100 µM | 64.6 µM | > 100 µM | 84.5 µM | > 100 µM | > 100 µM | > 100 µM | > 100 µM | 
COCc1c(C(=O)Nc2ccc(SC#N)cc2)nnn1-c1ccc(C)cc1 | 81.2 µM | 21.7 µM | 93.3 µM | > 100 µM | 53.6 µM | > 100 µM | > 100 µM | > 100 µM | 46.4 µM | > 100 µM | 42.5 µM | 4.46 µM | > 100 µM | > 100 µM | 75.7 µM | 
CC[n+]1c(-c2ccccc2)c2cc(N)ccc2c2ccc(N)cc21 |  |  |  |  |  |  |  |  |  |  |  |  |  |  |  | Activity (DNA [4]): 24.7%; Activity (DNA [5]): 46.6%
Cc1ccc(Cl)c(-n2nnc(C(=O)Nc3ccc(SC#N)cc3)c2C)c1 | > 100 µM | > 100 µM | > 100 µM | > 100 µM | 68 µM | > 100 µM | > 100 µM | > 100 µM | 9.6 µM | > 100 µM | 6.6 µM | 66.3 µM | > 100 µM | > 100 µM | 100 µM | 
COc1cc([C@@H]2c3cc4c(cc3[C@@H](NC(=O)c3cn(-c5ccc(Cl)cc5)nn3)[C@H]3COC(=O)[C@H]23)OCO4)cc(OC)c1OC |  |  |  |  |  |  |  |  |  |  |  |  |  |  |  | IC50 [6]: < 1 µM
CCCc1c(C(=O)Nc2ccc(SC#N)cc2)nnn1-c1ccccc1 | 42.3 µM | 39.6 µM | 65.7 µM | 48.8 µM | 7.8 µM | > 100 µM | 52 µM | > 100 µM | 73.7 µM | > 100 µM | 1.4 µM | 0.63 µM | > 100 µM | > 100 µM | 96.9 µM | 
COc1cccc2c1C(=O)c1c(O)c3c(c(O)c1C2=O)C[C@@](O)(C(=O)CO)C[C@@H]3O[C@H]1C[C@H](N)[C@H](O)[C@H](C)O1 [DOXORUBICIN] | 0.76 µM | 0.5 µM | 0.9 µM | 0.76 µM | 0.74 µM | 1.1 µM | 0.82 µM | 0.76 µM | 8.8 µM | 23.1 µM | 0.7 µM | 0.65 µM | 0.9 µM | 0.8 µM | 0.62 µM | Activity (Jurkat [7]): Active; Activity (Jurkat [8]): Active; Activity (Jurkat [9]): Active; Activity (Jurkat [10]): Active; Activity (Jurkat [11]): Active; Activity (Jurkat [12]): Active; Activity (Jurkat [13]): 20.3%; Activity (Jurkat [14]): 5.4; Activity (Jurkat [15]): 64%; inhibition (Homo sapiens): Active; Activity (DNA [16]): 49.1%; Activity (DNA [17]): 54.2%
Cc1ccc(Cl)cc1-n1nnc(C(=O)Nc2ccc(SC#N)cc2)c1C | 39.6 µM | 8.2 µM | 72.8 µM | 91.3 µM | 7.8 µM | > 100 µM | 8.4 µM | 44.6 µM | 81.5 µM | > 100 µM | 5.7 µM | 0.68 µM | > 100 µM | 91.2 µM | 9.9 µM | 
CCNC(=O)c1nnn(-c2cc(C(C)C)c(O)cc2O)c1-c1ccc(CN2CCOCC2)cc1 |  |  |  |  |  |  |  |  |  |  |  |  |  |  |  | IC50 [18]: < 0.005 µM
Cc1ccc(-n2nnc(C(=O)Nc3ccc(SC#N)cc3)c2C)cc1C | > 100 µM | > 100 µM | 72.4 µM | > 100 µM | 61 µM | > 100 µM | 72 µM | > 100 µM | > 100 µM | > 100 µM | 9.2 µM | 0.68 µM | > 100 µM | > 100 µM | 9.8 µM | 
